# Key:
# [1] = molecular target: Sodium- and chloride-dependent GABA transporter 1 (Homo sapiens, UniProt P30531); experiment: Displacement of [3H]Tiagabine from human recombinant GAT1 expressed in HEK293 cells by equilibrium binding assay; format: cell-based
# Cytochrome P450 1A2 = molecular target: T1, Cytochrome P450 1A2 (Homo sapiens, UniProt P05177); experiment: Inhibition of CYP1A2; format: ADME
# T1 sequence (P05177 whole entry): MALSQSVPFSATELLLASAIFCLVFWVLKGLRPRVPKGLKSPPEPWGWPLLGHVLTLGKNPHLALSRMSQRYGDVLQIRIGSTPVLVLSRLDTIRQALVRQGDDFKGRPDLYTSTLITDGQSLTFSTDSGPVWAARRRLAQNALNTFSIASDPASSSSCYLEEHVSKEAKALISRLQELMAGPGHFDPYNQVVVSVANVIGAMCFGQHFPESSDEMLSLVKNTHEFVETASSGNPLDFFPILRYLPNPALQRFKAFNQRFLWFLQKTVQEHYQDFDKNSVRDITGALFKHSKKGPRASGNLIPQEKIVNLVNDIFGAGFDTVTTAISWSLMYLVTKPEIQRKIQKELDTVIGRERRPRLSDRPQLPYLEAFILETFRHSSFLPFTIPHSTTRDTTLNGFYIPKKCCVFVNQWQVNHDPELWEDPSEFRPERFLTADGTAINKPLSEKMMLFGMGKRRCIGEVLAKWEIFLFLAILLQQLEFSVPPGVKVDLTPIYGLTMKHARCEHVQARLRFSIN
# Cytochrome P450 2C9 = Cytochrome P450 2C9 (Homo sapiens, UniProt P11712); experiment: Inhibition of CYP2C9; format: ADME
# Cytochrome P450 2C19 = Cytochrome P450 2C19 (Homo sapiens, UniProt P33261); experiment: Inhibition of CYP2C19; format: ADME
# Cytochrome P450 3A4 = Cytochrome P450 3A4 (Homo sapiens, UniProt P08684); experiment: Inhibition of CYP3A4; format: ADME
# [2] = molecular target: T2, Sodium- and chloride-dependent betaine transporter (Homo sapiens, UniProt P48065); experiment: Inhibition of BGT1
# T2 sequence (P48065 whole entry): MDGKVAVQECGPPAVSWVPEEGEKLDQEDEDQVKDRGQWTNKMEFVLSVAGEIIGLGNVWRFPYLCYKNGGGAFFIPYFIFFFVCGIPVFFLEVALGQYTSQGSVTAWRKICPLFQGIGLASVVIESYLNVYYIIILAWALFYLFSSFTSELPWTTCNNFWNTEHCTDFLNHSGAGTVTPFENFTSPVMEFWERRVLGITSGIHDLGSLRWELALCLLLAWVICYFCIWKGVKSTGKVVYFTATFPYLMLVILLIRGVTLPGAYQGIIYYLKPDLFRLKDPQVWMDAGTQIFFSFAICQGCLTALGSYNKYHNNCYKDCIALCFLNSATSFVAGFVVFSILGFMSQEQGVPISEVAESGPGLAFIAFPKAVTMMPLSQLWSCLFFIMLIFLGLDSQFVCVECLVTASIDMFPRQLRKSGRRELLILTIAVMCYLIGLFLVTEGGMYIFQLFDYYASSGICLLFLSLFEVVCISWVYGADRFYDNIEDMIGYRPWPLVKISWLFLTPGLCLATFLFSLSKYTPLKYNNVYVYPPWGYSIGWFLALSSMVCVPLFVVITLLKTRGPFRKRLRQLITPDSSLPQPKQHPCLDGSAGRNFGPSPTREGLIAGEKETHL
# [3] = molecular target: T3, Sodium- and chloride-dependent GABA transporter 2 (Homo sapiens, UniProt Q9NSD5); experiment: Inhibition of GAT2
# T3 sequence (Q9NSD5 whole entry): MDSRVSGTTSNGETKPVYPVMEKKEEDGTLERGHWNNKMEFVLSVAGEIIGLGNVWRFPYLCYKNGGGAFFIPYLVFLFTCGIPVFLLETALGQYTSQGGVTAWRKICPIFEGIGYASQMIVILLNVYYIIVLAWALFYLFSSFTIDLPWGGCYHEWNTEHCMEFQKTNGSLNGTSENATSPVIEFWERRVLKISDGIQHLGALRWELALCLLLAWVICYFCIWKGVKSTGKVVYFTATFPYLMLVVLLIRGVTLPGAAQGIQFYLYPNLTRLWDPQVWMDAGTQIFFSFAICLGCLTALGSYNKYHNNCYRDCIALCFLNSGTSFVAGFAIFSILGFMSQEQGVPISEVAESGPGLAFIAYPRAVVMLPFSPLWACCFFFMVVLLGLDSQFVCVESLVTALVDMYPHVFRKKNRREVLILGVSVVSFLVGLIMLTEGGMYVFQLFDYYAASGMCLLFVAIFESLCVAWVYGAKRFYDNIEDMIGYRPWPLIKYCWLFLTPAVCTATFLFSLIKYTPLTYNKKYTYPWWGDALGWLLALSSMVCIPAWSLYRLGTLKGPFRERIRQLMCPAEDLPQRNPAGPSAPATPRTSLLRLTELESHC
# [4] = molecular target: T4, Sodium- and chloride-dependent GABA transporter 3 (Homo sapiens, UniProt P48066); experiment: Inhibition of GAT3
# T4 sequence (P48066 whole entry): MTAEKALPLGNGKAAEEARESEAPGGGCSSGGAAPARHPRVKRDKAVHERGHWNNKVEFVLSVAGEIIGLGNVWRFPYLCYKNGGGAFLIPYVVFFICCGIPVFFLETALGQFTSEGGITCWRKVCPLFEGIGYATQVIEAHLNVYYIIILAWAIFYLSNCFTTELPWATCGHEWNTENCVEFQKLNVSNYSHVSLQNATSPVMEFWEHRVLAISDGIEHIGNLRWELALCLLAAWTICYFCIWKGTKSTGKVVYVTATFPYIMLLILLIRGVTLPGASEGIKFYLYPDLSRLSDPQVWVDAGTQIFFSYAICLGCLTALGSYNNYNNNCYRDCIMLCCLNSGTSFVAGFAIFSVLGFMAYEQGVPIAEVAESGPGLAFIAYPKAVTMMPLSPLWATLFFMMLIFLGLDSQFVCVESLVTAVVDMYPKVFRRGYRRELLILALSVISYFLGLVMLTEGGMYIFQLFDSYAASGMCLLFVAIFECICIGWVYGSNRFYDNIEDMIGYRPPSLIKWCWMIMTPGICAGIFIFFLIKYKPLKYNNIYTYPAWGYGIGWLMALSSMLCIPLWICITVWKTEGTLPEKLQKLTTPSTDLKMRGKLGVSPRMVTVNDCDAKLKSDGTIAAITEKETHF
# Sequence of Sodium- and chloride-dependent GABA transporter 1 (P30531 whole entry): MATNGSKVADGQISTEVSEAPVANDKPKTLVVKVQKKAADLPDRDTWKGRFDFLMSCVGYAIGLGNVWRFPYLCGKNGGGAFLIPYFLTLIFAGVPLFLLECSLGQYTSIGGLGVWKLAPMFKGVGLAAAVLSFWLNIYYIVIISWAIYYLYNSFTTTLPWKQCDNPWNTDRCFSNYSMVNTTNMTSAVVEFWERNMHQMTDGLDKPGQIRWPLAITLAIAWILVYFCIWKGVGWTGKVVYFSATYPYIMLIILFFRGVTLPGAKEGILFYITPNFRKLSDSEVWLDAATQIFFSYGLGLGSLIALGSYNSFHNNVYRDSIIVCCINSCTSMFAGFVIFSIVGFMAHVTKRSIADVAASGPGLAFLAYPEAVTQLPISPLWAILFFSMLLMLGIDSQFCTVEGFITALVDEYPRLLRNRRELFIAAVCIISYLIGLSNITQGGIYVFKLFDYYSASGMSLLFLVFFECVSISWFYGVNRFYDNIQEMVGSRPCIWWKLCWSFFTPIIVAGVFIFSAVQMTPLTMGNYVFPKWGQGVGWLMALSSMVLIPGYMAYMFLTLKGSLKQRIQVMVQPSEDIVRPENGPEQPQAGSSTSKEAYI
# Sequence of Cytochrome P450 3A4 (P08684 whole entry): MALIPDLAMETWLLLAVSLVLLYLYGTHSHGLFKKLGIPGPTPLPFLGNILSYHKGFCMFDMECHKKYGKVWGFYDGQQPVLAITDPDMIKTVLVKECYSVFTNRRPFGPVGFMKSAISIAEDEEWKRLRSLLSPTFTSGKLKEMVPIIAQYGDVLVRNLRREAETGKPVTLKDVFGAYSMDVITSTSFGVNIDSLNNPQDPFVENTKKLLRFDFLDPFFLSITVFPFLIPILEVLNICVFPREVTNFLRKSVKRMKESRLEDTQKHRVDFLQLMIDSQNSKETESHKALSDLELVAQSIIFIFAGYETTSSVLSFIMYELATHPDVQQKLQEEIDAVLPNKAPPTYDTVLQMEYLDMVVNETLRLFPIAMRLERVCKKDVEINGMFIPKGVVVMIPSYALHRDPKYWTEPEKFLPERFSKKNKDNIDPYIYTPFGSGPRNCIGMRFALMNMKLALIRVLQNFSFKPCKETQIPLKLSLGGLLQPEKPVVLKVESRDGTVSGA
# Sequence of Cytochrome P450 2C9 (P11712 whole entry): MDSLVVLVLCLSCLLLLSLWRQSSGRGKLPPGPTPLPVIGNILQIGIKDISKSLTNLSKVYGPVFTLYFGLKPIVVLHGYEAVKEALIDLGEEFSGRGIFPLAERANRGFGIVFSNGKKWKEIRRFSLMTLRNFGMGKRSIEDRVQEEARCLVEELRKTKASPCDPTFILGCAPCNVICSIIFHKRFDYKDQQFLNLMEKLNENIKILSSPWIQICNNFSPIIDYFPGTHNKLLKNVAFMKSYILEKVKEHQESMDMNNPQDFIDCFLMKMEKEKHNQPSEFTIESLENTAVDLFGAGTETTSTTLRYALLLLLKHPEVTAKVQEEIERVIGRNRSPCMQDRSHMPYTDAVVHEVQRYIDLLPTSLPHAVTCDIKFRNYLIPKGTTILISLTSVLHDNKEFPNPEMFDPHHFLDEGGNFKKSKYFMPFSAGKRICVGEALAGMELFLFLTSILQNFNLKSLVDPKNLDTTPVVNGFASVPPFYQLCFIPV
# Sequence of Cytochrome P450 2C19 (P33261 whole entry): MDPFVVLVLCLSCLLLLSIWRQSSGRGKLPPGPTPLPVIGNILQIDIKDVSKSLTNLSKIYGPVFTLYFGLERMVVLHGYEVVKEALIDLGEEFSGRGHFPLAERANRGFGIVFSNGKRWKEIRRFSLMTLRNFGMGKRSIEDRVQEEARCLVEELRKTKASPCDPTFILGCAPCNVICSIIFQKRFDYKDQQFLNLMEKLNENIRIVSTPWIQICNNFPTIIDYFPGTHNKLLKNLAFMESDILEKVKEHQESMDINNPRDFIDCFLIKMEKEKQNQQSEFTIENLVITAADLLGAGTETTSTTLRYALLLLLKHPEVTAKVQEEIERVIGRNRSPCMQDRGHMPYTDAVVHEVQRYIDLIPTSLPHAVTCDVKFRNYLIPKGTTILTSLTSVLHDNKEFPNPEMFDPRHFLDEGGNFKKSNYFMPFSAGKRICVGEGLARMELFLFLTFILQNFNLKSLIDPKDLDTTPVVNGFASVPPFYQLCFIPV
Structure (SMILES),Ki [1] [µM],further results
O=C(O)[C@@H]1CCCN(CC/C=C(\c2ccccc2)c2ccccc2F)C1,0.372,–
O=C(O)[C@@H]1CCCN(CC/C=C(\c2ccccc2)c2ccccc2Cl)C1,0.166,–
O=C(O)[C@@H]1CCCN(CC/C=C(\c2ccccc2)c2ccccc2Br)C1,0.2,–
CCc1ccccc1/C(=C/CCN1CCC[C@@H](C(=O)O)C1)c1ccccc1,0.102,–
O=C(O)[C@@H]1CCCN(CC/C=C(\c2ccccc2)c2ccccc2-c2ccccc2)C1,0.676,–
COc1ccccc1/C(=C/CCN1CCC[C@@H](C(=O)O)C1)c1ccccc1,0.372,–
O=C(O)[C@@H]1CCCN(CC/C=C(\c2ccccc2)c2ccccc2OC(F)(F)F)C1,0.646,–
O=C(O)[C@@H]1CCCN(CC/C=C(\c2ccccc2)c2c(F)cccc2F)C1,0.692,–
Cc1cc(F)ccc1/C(=C/CCN1CCC[C@@H](C(=O)O)C1)c1ccccc1,0.38,–
O=C(O)[C@@H]1CCCN(CC/C=C(/c2ccccc2)c2ccccc2F)C1,0.0692,–
O=C(O)[C@@H]1CCCN(CC/C=C(/c2ccccc2)c2ccccc2Cl)C1,0.0407,–
O=C(O)[C@@H]1CCCN(CC/C=C(/c2ccccc2)c2ccccc2Br)C1,0.0288,–
CCc1ccccc1/C(=C\CCN1CCC[C@@H](C(=O)O)C1)c1ccccc1,0.0295,–
O=C(O)[C@@H]1CCCN(CC/C=C(/c2ccccc2)c2ccccc2-c2ccccc2)C1,1.07,–
COc1ccccc1/C(=C\CCN1CCC[C@@H](C(=O)O)C1)c1ccccc1,0.0562,–
O=C(O)[C@@H]1CCCN(CC/C=C(/c2ccccc2)c2ccccc2OC(F)(F)F)C1,0.0589,–
O=C(O)[C@@H]1CCCN(CC/C=C(/c2ccccc2)c2c(F)cccc2F)C1,0.331,–

Structure (SMILES),Ki [1] [µM],further results
Cc1cc(F)ccc1/C(=C\CCN1CCC[C@@H](C(=O)O)C1)c1ccccc1,0.0339,–
Cc1cccc(C)c1/C(=C\CCN1CCC[C@@H](C(=O)O)C1)c1ccccc1,0.0776,–
CCc1ccccc1/C(=C/CCN1CCC[C@@H](C(=O)O)C1)c1ccccc1F,0.0891,–
O=C(O)[C@@H]1CCCN(CC/C=C(\c2ccccc2F)c2ccccc2Cl)C1,0.158,–
CCc1ccccc1/C(=C\CCN1CCC[C@@H](C(=O)O)C1)c1ccccc1F,0.038,–
COc1ccccc1/C(=C\CCN1CCC[C@@H](C(=O)O)C1)c1ccccc1F,0.0537,–
Cc1cc(F)ccc1/C(=C\CCN1CCC[C@@H](C(=O)O)C1)c1ccccc1F,0.0191,–
Cc1ccc(C(=CCCN2CCCC(F)(C(=O)O)C2)c2ccc(C)s2)s1 (configuration not stated),0.138,–
O=C(O)C1(F)CCCN(CCC=C(c2ccccc2)c2ccccc2)C1 (configuration not stated),0.832,–
CC(=O)[C@@H]1CC[C@H]2CC[C@@H]1N2CCC=C(c1ccccc1)c1ccccc1,2.75,–
Cc1ccc(C(=CCCN2CCOC(C(=O)O)C2)c2ccc(C)s2)s1 (configuration not stated),> 10,–
Cc1ccc(C(=CCCN(C)[C@H]2CCC[C@@H]2C(=O)O)c2ccc(C)s2)s1,> 10,–
Cc1ccc(C(=CCCN(C)[C@H]2CCCC[C@@H]2C(=O)O)c2ccc(C)s2)s1,> 10,–
Cc1ccc(C(=CCCN2C[C@@H]3[C@H](C2)[C@@H]3C(=O)O)c2ccc(C)s2)s1,> 10,–
Cc1ccc(C(=CCCN2C[C@@H]3[C@H](C2)[C@H]3C(=O)O)c2ccc(C)s2)s1,> 10,–
Cc1ccc(C(=CCCN2CC[C@@H]3[C@H](C2)[C@@H]3C(=O)O)c2ccc(C)s2)s1,> 10,–
Cc1ccc(C(=CCCN2CC[C@H]3[C@@H](C2)[C@@H]3C(=O)O)c2ccc(C)s2)s1,> 10,–

# Further lines, with some results ahead:
Ki [1] [µM],Structure (SMILES),further results
0.0148,Cc1ccccc1/C(=C\CCN1CCC[C@@H](C(=O)O)C1)c1ccccc1F,IC50 (Cytochrome P450 1A2): > 10 µM; IC50 (Cytochrome P450 2C9): > 10 µM; IC50 (Cytochrome P450 2C19): > 10 µM; IC50 (Cytochrome P450 3A4): > 10 µM; IC50 [2]: > 100 µM; IC50 [3]: > 100 µM; IC50 [4]: > 100 µM
1.91,O=C(O)[C@@H]1CCCN(CC/C=C(\c2ccccc2)c2ccccc2C(F)(F)F)C1,–
0.0933,Cc1ccccc1/C(=C/CCN1CCC[C@@H](C(=O)O)C1)c1ccccc1,–
0.0933,O=C(O)[C@@H]1CCCN(CC/C=C(/c2ccccc2)c2ccccc2C(F)(F)F)C1,–
0.0204,Cc1ccccc1/C(=C\CCN1CCC[C@@H](C(=O)O)C1)c1ccccc1,–
0.0724,Cc1ccccc1/C(=C/CCN1CCC[C@@H](C(=O)O)C1)c1ccccc1F,–
0.0468,O=C(O)[C@@H]1CCCN(CCC=C(c2ccccc2F)c2ccccc2F)C1,–
0.355,O=C(O)[C@@H]1CCCN(CC/C=C(\c2ccccc2F)c2ccccc2C(F)(F)F)C1,–
0.0617,Cc1ccccc1/C(=C\CCN1CCC[C@@H](C(=O)O)C1)c1ccccc1Cl,–
0.38,Cc1ccccc1/C(=C\CCN1CCC[C@@H](C(=O)O)C1)c1ccccc1C(F)(F)F,–
0.0708,COc1ccccc1/C(=C/CCN1CCC[C@@H](C(=O)O)C1)c1ccccc1C,–
0.0417,Cc1ccccc1C(=CCCN1CCC[C@@H](C(=O)O)C1)c1ccccc1C,–
0.0182,O=C(O)[C@@H]1CCCN(CC/C=C(/c2ccccc2F)c2ccccc2Cl)C1,–
0.0219,O=C(O)[C@@H]1CCCN(CC/C=C(/c2ccccc2F)c2ccccc2Br)C1,–
0.0525,O=C(O)[C@@H]1CCCN(CC/C=C(/c2ccccc2F)c2ccccc2OC(F)(F)F)C1,–
0.0389,Cc1cc(F)ccc1/C(=C\CCN1CCC[C@@H](C(=O)O)C1)c1ccccc1C(F)(F)F,–

# — ChEMBL document CHEMBL1641586, “Stereospecific synthesis and structure-activity relationships of unsymmetrical 4,4-diphenylbut-3-enyl derivatives of nipecotic acid as GAT-1 inhibitors” (Bioorg Med Chem Lett, 2011)
